Our source for the IC50 values is US20170217889A1, “4-SUBSTITUTED PYRIDINE-2,6-DICARBOXYLIC ACID DERIVATIVES AND METHOD OF PREPARING SAME” (Okinawa Institute of Science and Technology School …, priority 2014, published 2017).

The nature of the data set: Cytotoxicity, K562 cell growth inhibition (Cell Counting Kit-8 / WST-8). The class given is cell-based. The conditions noted are these: human; K562 cells; 6-48 hrs incubation; WST-8 absorbance at 450 nm; read-out: Cytotoxic activity evaluated using K562 cells IC50. On the procedure:
K562 cells (American Type Culture Collection) were cultured in a culture medium containing 10% (v/v) fetal calf serum (FCS) (manufactures by Sigma) to logarithmic phase. The cells were seeded in 96-well microtiter plate at a density of 5000 cells/well in 100 μL cell culture medium and incubated at 37° C. and 5% CO2 in a humidified incubator overnight. The test compounds of various concentrations were added in a well at 10 fold concentration in 1/10 volume of medium without FCS. After 6-48 hrs incubation at 37° C. in the CO2 incubator, 10 uL solution of the viable cell counting reagent, Cell counting Kit-8 (5 mmol/L WST-8, 0.2 mmol/L 1-Methoxy PMS, 150 mmol/L NaCl) (manufactured by Dojindo) was added to each well, and reacted for 1 to 4 hours in the CO2 incubator. After the incubation, an absorbance of formazan, generated by reduction of WST-8, was determined at 450 nm using a microplate reader.
The assay readout is correlated with the viable cell numbers. Lower values correspond to high inhibition and greater values to low inhibition of the cell growth. To determine IC50 values (i.e. the concentration inhibiting the cell growth by 50%) of the compounds of formula I, several assays were made with a range of concentrations chosen empirically to give low, high and intermediate inhibition of the growth and determined using curve fitting software.
A general note: Formazan colour is commonly taken as a measure of viable cells.
With `CCOC(=O)c1cc(-c2ccc(Br)cc2)cc(C(=O)OCC)n1`, the IC50 (usually the concentration that gives 50% inhibition) is 35 µM.
To `CCOC(=O)c1cc(-c2ccc(Cl)cc2)cc(C(=O)OCC)n1` belongs 50 µM.
On to `CCOC(=O)c1cc(C2CCCCC2)cc(C(=O)OCC)n1`, for which the half-maximal inhibitory concentration (IC50) came out at 51 µM.
